Patent publication US12129237B2, “Substituted diaminocarboxamide and diaminocarbonitrile pyrimidines, compositions thereof, and methods of treatment therewith” (SIGNAL PHARMACEUTICALS, LLC, priority 2011, dated 2024)

These molecules were tested against T1, JNK1 (Homo sapiens, UniProt P45983) (assay: JNK1 biochemical assays (one or more of: time resolved fluorescence, Z'-LYTE Cascade, radioactive)). Conditions: one or more of the JNK1 biochemical assays; read-out: Act. Level (JNK1 IC50 activity level).
T1 construct: purchased Carna Biosciences
T1 sequence (P45983 whole entry): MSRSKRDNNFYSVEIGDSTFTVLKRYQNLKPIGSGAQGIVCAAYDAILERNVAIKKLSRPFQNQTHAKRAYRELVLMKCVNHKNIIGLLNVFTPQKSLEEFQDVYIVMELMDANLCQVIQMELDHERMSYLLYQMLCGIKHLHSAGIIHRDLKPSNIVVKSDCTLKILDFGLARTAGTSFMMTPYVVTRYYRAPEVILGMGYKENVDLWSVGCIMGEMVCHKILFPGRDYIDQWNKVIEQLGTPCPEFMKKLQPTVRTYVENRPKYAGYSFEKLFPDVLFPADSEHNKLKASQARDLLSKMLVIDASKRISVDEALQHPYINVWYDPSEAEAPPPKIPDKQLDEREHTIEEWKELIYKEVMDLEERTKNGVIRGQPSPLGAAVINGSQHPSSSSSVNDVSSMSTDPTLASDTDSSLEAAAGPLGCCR

IC50 [µM] | Compound
< 0.2 | NC(=O)c1cnc(N[C@H]2CC[C@H](O)CC2)nc1NC12CCC(C1)C2 [Example 477, 4-(bicyclo[2.1.1]hexan-1-ylamino)-2-((1r,4r)-4-hydroxycyclohexylamino)pyrimidine-5-carboxamide]
< 0.2 | CCO[C@H]1CC[C@H](Nc2ncc(C(N)=O)c(NC3(CC)CCCCC3)n2)CC1 [Example 478, 2-((1r,4r)-4-ethoxycyclohexylamino)-4-(1-ethylcyclohexylamino)pyrimidine-5-carboxamide]
< 0.2 | CC(C)(Nc1nc(NC23CCC(O)(CC2)CC3)ncc1C(N)=O)C1CC1 [Example 479, 4-(2-cyclopropylpropan-2-ylamino)-2-(4-hydroxybicyclo[2.2.2]octan-1-ylamino)pyrimidine-5-carboxamide]
< 0.2 | CN(C)C(=O)[C@H]1CC[C@H](Nc2ncc(C(N)=O)c(NC(C)(C)C3CC3)n2)CC1 [Example 480, 4-(2-cyclopropylpropan-2-ylamino)-2-((1r,4r)-4-(dimethylcarbamoyl)cyclohexylamino)pyrimidine-5-carboxamide]
< 0.2 | CC(C)(Nc1nc(N[C@H]2CC[C@H](OC(F)F)CC2)ncc1C(N)=O)C1CC1 [Example 481, 4-(2-cyclopropylpropan-2-ylamino)-2-((1r,4r)-4-(difluoromethoxy)cyclohexylamino)pyrimidine-5-carboxamide]
< 0.2 | CC(C)(Nc1nc(N[C@H]2CC[C@H](OCC(F)(F)F)CC2)ncc1C(N)=O)C1CC1 [Example 482, 4-(2-cyclopropylpropan-2-ylamino)-2-((1r,4r)-4-(2,2,2-trifluoroethoxy)cyclohexylamino)pyrimidine-5-carboxamide]
< 0.2 | CC(C)(Nc1nc(N[C@H]2CC[C@H](OC3CC3)CC2)ncc1C(N)=O)C1CC1 [Example 483, 2-((1r,4r)-4-cyclopropoxycyclohexylamino)-4-(2-cyclopropylpropan-2-ylamino)pyrimidine-5-carboxamide]
< 0.2 | NC(=O)c1cnc(N[C@H]2CC[C@H](OC3CC3)CC2)nc1NC1C2CC1C2 (stereo partly shown) [Example 486, 4-(bicyclo[1.1.1]pentan-2-ylamino)-2-((1r,4r)-4-cyclopropoxycyclohexylamino)pyrimidine-5-carboxamide]
< 0.2 | NC(=O)c1cnc(N[C@H]2CC[C@H](OC3CC3)CC2)nc1NC12CCC(C1)C2 [Example 487, 4-(bicyclo[2.1.1]hexan-1-ylamino)-2-((1r,4r)-4-cyclopropoxycyclohexylamino)pyrimidine-5-carboxamide]
< 0.2 | CCO[C@H]1CC[C@H](Nc2ncc(C(N)=O)c(NC3(C)CCCC3)n2)CC1 [Example 488, 2-((1r,4r)-4-ethoxycyclohexylamino)-4-(1-methylcyclopentylamino)pyrimidine-5-carboxamide]
< 0.2 | C[C@@H]1CC[C@@H](Nc2nc(NC34CC(C(C)(C)C)(C3)C4)ncc2C(N)=O)C[C@H]1O [Example 489, 2-(3-tert-butylbicyclo[1.1.1]pentan-1-ylamino)-4-((1R,3R,4R)-3-hydroxy-4-methylcyclohexylamino)pyrimidine-5-carboxamide]
< 0.2 | CC12CC(Nc3nc(NC45CCC(O)(CC4)C5)ncc3C(N)=O)(C1)C2 [Example 490, 2-(4-hydroxybicyclo[2.2.1]heptan-1-ylamino)-4-(3-methylbicyclo[1.1.1]pentan-1-ylamino)pyrimidine-5-carboxamide]
< 0.2 | C[C@@H]1CC[C@@H](Nc2nc(N[C@H]3CC[C@H](OC4CC4)CC3)ncc2C(N)=O)C[C@H]1O [Example 492, 2-((1r,4R)-4-cyclopropoxycyclohexylamino)-4-((1R,3R,4R)-3-hydroxy-4-methylcyclohexylamino)pyrimidine-5-carboxamide]
< 0.2 | CC(C)(C)C12CC(Nc3nc(N[C@H]4CC[C@H](O)CC4)ncc3C(N)=O)(C1)C2 [Example 493, 4-(3-tert-butylbicyclo[1.1.1]pentan-1-ylamino)-2-((1r,4r)-4-hydroxycyclohexylamino)pyrimidine-5-carboxamide]
< 0.2 | CCNc1ncc(C(N)=O)c(N[C@@H]2CC[C@@H](C)[C@H](O)C2)n1 [Example 494, 2-(ethylamino)-4-((1R,3R,4R)-3-hydroxy-4-methylcyclohexylamino)pyrimidine-5-carboxamide]
< 0.2 | CC(C)CNc1ncc(C(N)=O)c(N[C@@H]2CCC[C@H](O)C2)n1 [Example 495, 4-((1R,3S)-3-hydroxycyclohexylamino)-2-(isobutylamino)pyrimidine-5-carboxamide]
< 0.2 | CC[C@H](C)Nc1ncc(C(N)=O)c(N[C@@H]2CCC[C@H](O)C2)n1 [Example 496, 2-(sec-butylamino)-4-((1R,3S)-3-hydroxycyclohexylamino)pyrimidine-5-carboxamide]
< 0.2 | CC[C@@H](C)Nc1ncc(C(N)=O)c(N[C@@H]2CCC[C@H](O)C2)n1 [Example 497, 2-(sec-butylamino)-4-((1R,3S)-3-hydroxycyclohexylamino)pyrimidine-5-carboxamide]
< 0.2 | CCC(CC)Nc1ncc(C(N)=O)c(N[C@@H]2CCC[C@H](O)C2)n1 [Example 498, 4-((1R,3S)-3-hydroxycyclohexylamino)-2-(pentan-3-ylamino)pyrimidine-5-carboxamide]

Same assay, conditions: tested in one or more of the JNK1 biochemical assays; read-out: Act. Level (JNK1 biochemical assay IC50 activity level)

IC50 [µM] | Compound
< 0.2 | CC(C)Nc1nc(N[C@H]2CC[C@H](OCC(F)(F)F)CC2)ncc1C(N)=O [Example A-1, 4-(isopropylamino)-2-((1r,4r)-4-(2,2,2-trifluoroethoxy)cyclohexylamino)pyrimidine-5-carboxamide]
< 0.2 | CC(C)Nc1nc(NC2CCC(F)(F)CC2)ncc1C(N)=O [Example A-3, 2-(4,4-difluorocyclohexylamino)-4-(isopropylamino)pyrimidine-5-carboxamide]
< 0.2 | NC(=O)c1cnc(N[C@H]2CC[C@H](OC(F)F)CC2)nc1N[C@@H]1CCC[C@H]1O [Example A-4, 2-((1r,4R)-4-(difluoromethoxy)cyclohexylamino)-4-((1R,2R)-2-hydroxycyclopentylamino)pyrimidine-5-carboxamide]
< 0.2 | NC(=O)c1cnc(NC2CCC(F)(F)CC2)nc1N[C@@H]1CCC[C@H]1O [Example A-5, 2-(4,4-difluorocyclohexylamino)-4-((1R,2R)-2-hydroxycyclopentylamino)pyrimidine-5-carboxamide]
< 0.2 | CC(C)Nc1nc(N[C@H]2CC[C@H](C(C)(C)O)CC2)ncc1C(N)=O [Example A-6, 2-((1r,4r)-4-(2-hydroxypropan-2-yl)cyclohexylamino)-4-(isopropylamino)pyrimidine-5-carboxamide]
< 0.2 | NC(=O)c1cnc(NC2CCOCC2)nc1N[C@@H]1CCC[C@H]1O [Example A-7, 4-((1R,2R)-2-hydroxycyclopentylamino)-2-(tetrahydro-2H-pyran-4-ylamino)pyrimidine-5-carboxamide]
< 0.2 | CC(C)Nc1nc(N[C@H]2CC[C@H](C(=O)N(C)C)CC2)ncc1C(N)=O [Example A-10, 2-((1r,4r)-4-(dimethylcarbamoyl)cyclohexylamino)-4-(isopropylamino)pyrimidine-5-carboxamide]
0.2 to 0.8 | CC(C)Nc1nc(NC2CCC3(CC2)OCCO3)ncc1C(N)=O [Example A-11, 2-(1,4-dioxaspiro[4.5]decan-8-ylamino)-4-(isopropylamino)pyrimidine-5-carboxamide]
< 0.2 | CC(C)Nc1nc(N[C@H]2CC[C@H](CO)CC2)ncc1C(N)=O [Example A-12, 2-((1r,4r)-4-(hydroxymethyl)cyclohexylamino)-4-(isopropylamino)pyrimidine-5-carboxamide]
< 0.2 | CO[C@H]1CC[C@H](Nc2ncc(C(N)=O)c(NC3COCC(O)C3)n2)CC1 (stereo partly shown) [Example A-13, 4-(5-hydroxytetrahydro-2H-pyran-3-ylamino)-2-((1r,4r)-4-methoxycyclohexylamino)pyrimidine-5-carboxamide]
< 0.2 | C[C@]1(O)CC[C@H](Nc2ncc(C(N)=O)c(N[C@@H]3CCC[C@H](O)C3)n2)CC1 [Example A-22, 2-((1r,4R)-4-hydroxy-4-methylcyclohexylamino)-4-((1R,3S)-3-hydroxycyclohexylamino)pyrimidine-5-carboxamide]
< 0.2 | CO[C@H]1CC[C@H](Nc2ncc(C(N)=O)c(N[C@H]3CCNC(=O)C3)n2)CC1 [Example A-25, 2-((1r,4S)-4-methoxycyclohexylamino)-4-((S)-2-oxopiperidin-4-ylamino)pyrimidine-5-carboxamide]
0.2 to 0.8 | CO[C@H]1CC[C@H](Nc2ncc(C(N)=O)c(N[C@@H]3CCNC(=O)C3)n2)CC1 [Example A-26, 2-((1r,4R)-4-methoxycyclohexylamino)-4-((R)-2-oxopiperidin-4-ylamino)pyrimidine-5-carboxamide]
< 0.2 | CN(C)C(=O)[C@H]1CC[C@H](Nc2ncc(C(N)=O)c(N[C@@H]3CCC[C@H](O)C3)n2)CC1 [Example A-27, 2-((1r,4R)-4-(dimethylcarbamoyl)cyclohexylamino)-4-((1R,3S)-3-hydroxycyclohexylamino)pyrimidine-5-carboxamide]
< 0.2 | CO[C@H]1CC[C@H](Nc2ncc(C(N)=O)c(N[C@H]3CC[C@H](O)CC3)n2)CC1 [Example A-34, 4-((1r,4r)-4-hydroxycyclohexylamino)-2-((1r,4r)-4-methoxycyclohexylamino)pyrimidine-5-carboxamide]
< 0.2 | CO[C@H]1CC[C@H](Nc2ncc(C(N)=O)c(NC(C)(C)CCO)n2)CC1 [Example A-35, 4-(4-hydroxy-2-methylbutan-2-ylamino)-2-((1r,4r)-4-methoxycyclohexylamino)pyrimidine-5-carboxamide]
< 0.2 | CO[C@H]1CC[C@H](Nc2ncc(C(N)=O)c(N[C@@H]3CCC[C@@H]3CO)n2)CC1 [Example A-36, 4-((1R,2S)-2-(hydroxymethyl)cyclopentylamino)-2-((1r,4R)-4-methoxycyclohexylamino)pyrimidine-5-carboxamide]
0.2 to 0.8 | CO[C@H]1CC[C@H](Nc2ncc(C(N)=O)c(N[C@H]3CCC[C@H]3CO)n2)CC1 [Example A-37, 4-((1S,2R)-2-(hydroxymethyl)cyclopentylamino)-2-((1r,4S)-4-methoxycyclohexylamino)pyrimidine-5-carboxamide]
